What is called IC50 is the concentration needed to halve the response being measured.

Some targets named below: A*3301 (Homo sapiens, UniProt P04439, A270S/D185E/E176V/E277Q/E87N/F33T/G231S/H175R/I121M/I218V/I322F/K168Q/K210R/L300P/L318F/M331R/P217A/Q86R/Q94H/R138Q/T323A/T345S/T97I/V358M/Y195H); HLA-A3.2 (A*0301) (Homo sapiens, UniProt P04439); A31 (A*3101) (Homo sapiens, UniProt P04439, A270S/D185E/E176V/E277Q/F33T/G231S/G80R/H175R/I121M/I218V/I322F/K168Q/L300P/L318F/M331R/P217A/Q94H/R138Q/T323A/T345S/T97I/V358M); A*6801 (Homo sapiens, UniProt P04439, A269V/D185E/E176V/E277Q/E87N/F33Y/G231S/I121M/I166T/I218V/L180W/L300P/L318F/N151K/P208A/P217A/Q86R/R169H/T345S); HLA-A11 (A*1101) (Homo sapiens, UniProt P04439, A114D/D185E/E176A/F33Y/L180Q/S129P/T187R).

Common to all, as to assay: biochemical
Common to all, as to format: binding

No end group written: not given here.

Turning to ATNCTNKQR [Peptide 1589.20], the IC50 stood at 13 µM against A*3301, 1.83 µM on HLA-A3.2 (A*0301) and 0.051 µM against A31 (A*3101).
As to EFTAFLVAFK [Peptide 88.0193], the IC50 at A*3301 came to 0.127 µM; against A*6801 it was 0.98 µM; at HLA-A3.2 (A*0301), 7.48 µM.
As to GILRQRRAR [Peptide 9017.0114], the IC50 stood at 0.672 µM against HLA-A11 (A*1101), 3.19 µM on A*3301, 1.48 µM on A*6801 and 0.177 µM at A31 (A*3101).
Regarding GQVDYYGLYY [Peptide 1589.02], the IC50 was 0.053 µM against HLA-A11 (A*1101), over 20 µM against A*3301, over 20 µM against A*6801 and 5.4 µM against A31 (A*3101).
In the case of GQVNCKGIYY [Peptide 88.0209], the IC50 on HLA-A11 (A*1101) is 0.168 µM; against A*3301, over 20 µM; at A*6801, over 20 µM; on A31 (A*3101) it was 2.76 µM.
As to GQWIQSRCEK [Peptide 88.0166], the IC50 is 4.92 µM at A*3301, over 20 µM against A*6801 and 0.32 µM against HLA-A3.2 (A*0301).
Turning to GTRQARKNR [Peptide 9017.0071], the IC50 is 8.35 µM on HLA-A11 (A*1101), 5.07 µM on A*3301, over 20 µM on A*6801 and 0.024 µM against A31 (A*3101).
As for GTTLEQQYNK [Peptide 78.0044], the IC50 was 0.069 µM against HLA-A11 (A*1101), over 20 µM on A*3301, 3.94 µM against A*6801 and over 20 µM on A31 (A*3101).
Regarding HLFGYSFYK [Peptide 76.0190], the IC50 was 0.033 µM against A*3301, 0.0054 µM against HLA-A3.2 (A*0301) and 0.027 µM against A31 (A*3101).
Consider IVVSAELPK [Peptide 1556.19], for which the 50% inhibitory concentration (IC50) was 0.093 µM against HLA-A11 (A*1101), over 20 µM against A*3301, 0.218 µM at A*6801 and over 20 µM at A31 (A*3101).
Take KGLGISYGR [Peptide 1577.30]: the IC50 was 0.415 µM at HLA-A11 (A*1101), over 20 µM against A*3301, over 20 µM against A*6801 and 0.0014 µM against A31 (A*3101).
For the sequence KISEYRHYQY [Peptide 1571.14], the IC50 at HLA-A11 (A*1101) is 0.392 µM; at A*3301, over 20 µM; on A*6801 it was 11.7 µM; on A31 (A*3101), 7.22 µM.
As to KLTEDRWNK [Peptide 9017.0108], the IC50 is 0.042 µM on HLA-A11 (A*1101), over 20 µM at A*3301, over 20 µM against A*6801 and 0.055 µM against A31 (A*3101).
As for KQIVMFLRY [Peptide 88.0330], the IC50 on HLA-A11 (A*1101) is 0.097 µM; against A*3301 it was 6.4 µM; against A*6801, 2.26 µM; at A31 (A*3101) it was 4.39 µM.
For KQLCDLLIR [Peptide 1513.14], in that order: 1.68 µM, 6.9 µM, over 20 µM and 0.024 µM.
Consider KQRFHNIRGR [Peptide 78.0083], for which the IC50 on A*3301 amounted to 4.44 µM; at HLA-A3.2 (A*0301) it was 2.04 µM; on A31 (A*3101), 0.178 µM.
Consider KTVRLIKFLY [Peptide 9017.0197], for which the IC50 against HLA-A11 (A*1101) is 0.235 µM; at A*3301 it was 6.65 µM; on A*6801, 12 µM; at A31 (A*3101), 1.29 µM.
For KVCLRLLSK [Peptide 78.0302], in that order: 0.23 µM, over 20 µM, over 20 µM and 0.525 µM.
Taken in the same sequence, the figures for KVSEFRWYRY [Peptide 78.0053] were 0.024 µM, 7.07 µM, 1.91 µM and 0.011 µM.
For LTALIKPKK [Peptide 9017.0100], in that order: 0.071 µM, 1.11 µM, 0.027 µM and 2.48 µM.
On to LTYDSEWQR [Peptide 1589.04], for which the figures for the IC50 against A*6801 and against HLA-A3.2 (A*0301) were 0.014 µM and 0.888 µM, respectively.
Turning to MLIEPPKLR [Peptide 88.0366], the IC50 against HLA-A11 (A*1101) came to 2.88 µM; against A*3301, 0.15 µM; on A*6801, 0.012 µM; against A31 (A*3101), 3.16 µM.
Take MTLESILRR [Peptide 9012.0215]: the IC50 turned out to be 0.014 µM on HLA-A11 (A*1101), 0.094 µM on A*3301, 0.015 µM on A*6801 and 0.243 µM against A31 (A*3101).
Taken in the same sequence, the figures for NTMHYTNWK [Peptide 1589.16] were 0.011 µM, 0.402 µM, 0.011 µM and 4.92 µM.
Turning to NVCVSWKYK [Peptide 88.0383], the IC50 against HLA-A11 (A*1101) was determined as 0.927 µM; at A*3301, 2.46 µM; on A*6801 it was 0.628 µM; against A31 (A*3101), 0.265 µM.
PVRPQVPLR [Peptide 66.0063] gave an IC50 at HLA-A3.2 (A*0301) of over 20 µM.
Consider QVNCKGIYY [Peptide 88.0408], for which the IC50 at HLA-A11 (A*1101) was 1.62 µM; against A*3301 it was over 20 µM; at A*6801, over 20 µM; at A31 (A*3101), over 20 µM.
As for RQLFLNTVK [Peptide 1589.44], the IC50 was 0.039 µM at HLA-A11 (A*1101), over 20 µM against A*3301, 16.2 µM against A*6801 and 0.087 µM against A31 (A*3101).
Turning to RVHSSHLKSKK [Peptide 1556.75], the IC50 was 0.02 µM against HLA-A11 (A*1101), 12 µM on A*3301, 2.15 µM against A*6801 and 0.3 µM at A31 (A*3101).
For SFFSRTWCK [Peptide 88.0363], in that order: 0.016 µM, 0.004 µM, 0.066 µM and 0.012 µM.
As for SSLARRHMAR [Peptide 9017.0193], the half-inhibitory concentration (IC50) on HLA-A11 (A*1101) is 0.928 µM; at A*3301, 0.19 µM; against A*6801, 0.869 µM; on A31 (A*3101) it was 0.0048 µM.
For STTETADPK [Peptide 88.0441], in that order: 0.017 µM, over 20 µM, 0.074 µM and 3.58 µM.
On to SVCMGGMNR [Peptide 1556.60], for which the IC50 was 0.078 µM against A*3301, 0.157 µM against HLA-A3.2 (A*0301) and 0.092 µM against A31 (A*3101).
Turning to SVFQNLQVIK [Peptide 9012.0231], the IC50 at HLA-A11 (A*1101) stood at 0.011 µM; against A*3301, 6.22 µM; against A*6801, 0.016 µM; against A31 (A*3101), 3.56 µM.
Taken in the same sequence, the figures for TFPNPFPFDK [Peptide 88.0162] were 0.221 µM, 1.83 µM, 1.11 µM and 2.26 µM.
For TLSAELPK [Peptide 1556.24], in that order: 0.102 µM, over 20 µM, over 20 µM and over 20 µM.
In the case of TLTYISTSQR [Peptide 88.0211], the IC50 came out at 8.27 µM against HLA-A11 (A*1101), 1.01 µM on A*3301, 0.056 µM at A*6801 and 0.688 µM against A31 (A*3101).
With TSNECTNNK [Peptide 1589.31], the IC50 against A*3301 was over 20 µM; on HLA-A3.2 (A*0301), 4.79 µM; on A31 (A*3101), 8.91 µM.
As for TTLEKLTNK [Peptide 78.0283], the IC50 at HLA-A11 (A*1101) came out at 0.042 µM; against A*3301, 0.469 µM; against A*6801 it was 2.56 µM; on A31 (A*3101), 0.598 µM.
For the sequence TVTVSAELPK [Peptide 1556.16], the IC50 was over 20 µM against A*3301, 3.43 µM at HLA-A3.2 (A*0301) and over 20 µM on A31 (A*3101).
For the sequence VLCTYSPALNK [Peptide 1556.36], the IC50 was 0.15 µM on HLA-A11 (A*1101), over 20 µM on A*3301, 14.7 µM at A*6801 and 4.8 µM against A31 (A*3101).
For VLMWKFDSR [Peptide 9017.0066], in that order: 0.883 µM, 0.063 µM, 0.516 µM and 0.072 µM.
For VQFKSECEK [Peptide 88.0419], in that order: 0.02 µM, 4.77 µM, over 20 µM and 2.68 µM.
With VQVYFDGNK [Peptide 88.0399], the IC50 at A*3301 is over 20 µM; at HLA-A3.2 (A*0301) it was 2.05 µM; against A31 (A*3101), over 20 µM.
Take VTVYDGVPVWK [Peptide 1539.09]: the IC50 against HLA-A11 (A*1101) is 0.019 µM; against A*3301, over 20 µM; on A*6801 it was 0.362 µM; at A31 (A*3101), 18.3 µM.
Regarding VTVYYGVPVRR [Peptide 1525.07], the IC50 turned out to be 0.271 µM against HLA-A11 (A*1101), 0.795 µM at A*3301, 0.032 µM against A*6801 and 0.059 µM on A31 (A*3101).
As for WFYVQAIVDK [Peptide 88.0140], the IC50 on HLA-A11 (A*1101) was 12.9 µM; against A*3301, over 20 µM; against A*6801, 19.5 µM; on A31 (A*3101) it was over 20 µM.
For the sequence WLSEPQKCFK [Peptide 88.0236], the IC50 is 0.617 µM against A*3301, 1.69 µM at HLA-A3.2 (A*0301) and 2.34 µM at A31 (A*3101).
Consider YLTAPTGCLK [Peptide 1589.15], for which the IC50 on HLA-A11 (A*1101) was 0.573 µM; against A*3301, over 20 µM; at A*6801, 2.56 µM; against A31 (A*3101) it was over 20 µM.
Take YSVYGTTLEK [Peptide 78.0054]: the IC50 was 0.1 µM at HLA-A11 (A*1101), over 20 µM against A*3301, 0.036 µM against A*6801 and over 20 µM on A31 (A*3101).

The record behind these values is patent US9340577B2, “HLA binding motifs and peptides and their uses” (priority 1992, dated 2016).
